Each structure is given as a SMILES string. Several values for one entry are separate records, joined by “and”; a condition that tells them apart may be missing. Identical values can stand only once. Inconclusive results and toxic doses are left out.

The experiment relates to P388 leukemia ip, CD2F1 mice, survival T/C. Put plainly: NCI In Vivo Anticancer Drug Screen. Data for tumor model P388 Leukemia (intraperitoneal) in CD2F1 (CDF1) mice. As to conditions: endpoint: median survival time, higher = longer survival. The procedure, abridged: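 Mice carrying the transplanted tumor received test compound or vehicle. Survival was recorded in each group, and the value is the treated-group measurement divided by that of the vehicle-treated control group.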

[1] abbreviates: dose: 50.0 mg/kg/injection, schedule: Q01DX005 (ip), vehicle: Klucel (hydroxypropylcellulose) (HPC).
Setting [2] is: dose: 100.0 mg/kg/injection, schedule: Q01DX005 (ip), vehicle: Klucel (hydroxypropylcellulose) (HPC).
Where [3] appears, read: dose: 150.0 mg/kg/injection, schedule: Q01DX005 (ip), vehicle: Klucel (hydroxypropylcellulose) (HPC).
Setting [4] is: dose: 50.0 mg/kg/injection, schedule: Q01DX009 (ip), vehicle: saline.
Setting [5] is: dose: 100.0 mg/kg/injection, schedule: Q01DX009 (ip), vehicle: saline.
[6] abbreviates: dose: 12.5 mg/kg/injection, schedule: Q01DX005 (ip), vehicle: saline with Tween-80.
[7] abbreviates: dose: 25.0 mg/kg/injection, schedule: Q01DX005 (ip), vehicle: saline with Tween-80.
Setting [8] is: dose: 50.0 mg/kg/injection, schedule: Q01DX005 (ip), vehicle: saline with Tween-80.
[9] abbreviates: dose: 50.0 mg/kg/injection, schedule: Q01DX005 (ip), vehicle: saline.
Setting [10] is: dose: 100.0 mg/kg/injection, schedule: Q01DX005 (ip), vehicle: saline.
The mark [11] stands for this setting: dose: 50.0 mg/kg/injection, schedule: Q01DX009 (ip), vehicle: saline with Tween-80.
[12] abbreviates: dose: 100.0 mg/kg/injection, schedule: Q01DX009 (ip), vehicle: saline with Tween-80.
Setting [13] is: dose: 200.0 mg/kg/injection, schedule: Q01DX009 (ip), vehicle: saline with Tween-80.

For `COc1cc(C2c3cc4c(cc3C(=O)C(C)C2C)OCO4)ccc1O` (centres undefined), the T/C (dose: 25.0 mg/kg/injection, schedule: Q01DX005 (ip), vehicle: Klucel (hydroxypropylcellulose) (HPC)) is 98 % of control; the T/C under setting [1] was 98 % of control; the T/C under setting [2] is 102 % of control; the T/C under setting [3] is 86 % of control.
`COc1cc2c(c(OC)c1OC)-c1cc3c(cc1C(OC1OC(COC(C)=O)C(OC(C)=O)C(OC(C)=O)C1OC(C)=O)C1COC(=O)C1C2)OCO3` (centres undefined): the T/C (dose: 18.75 mg/kg/injection, schedule: Q01DX005 (ip), vehicle: Klucel (hydroxypropylcellulose) (HPC)) was 93 % of control; the T/C (dose: 37.5 mg/kg/injection, schedule: Q01DX005 (ip), vehicle: Klucel (hydroxypropylcellulose) (HPC)) is 93 % of control; the T/C (dose: 75.0 mg/kg/injection, schedule: Q01DX005 (ip), vehicle: Klucel (hydroxypropylcellulose) (HPC)) is 93 % of control; the T/C under setting [3] was 88 % of control.
On to `CCN(CC)CCC1CN(C(C)C)CC1(c1ccccc1)c1ccccc1` (centres undefined), for which the T/C runs as follows: under setting [4], 101 % of control; under setting [5], 109 % of control; (dose: 200.0 mg/kg/injection, schedule: Q01DX009 (ip), vehicle: saline) 116 % of control.
With `COC(=O)CCCN1CC2C=C(C#N)C1C(C(=O)OC)C2` (centres undefined), the T/C is, setting by setting: (dose: 60.0 mg/kg/injection, schedule: Q01DX005 (ip), vehicle: saline) 98 % of control; (dose: 120.0 mg/kg/injection, schedule: Q01DX005 (ip), vehicle: saline) 96 % of control.
Regarding `CCCCCCCCN(CCCCCCCC)C(=N)c1ccnc2ccccc12`, the T/C reads like this: (dose: 6.25 mg/kg/injection, schedule: Q01DX005 (ip), vehicle: saline with Tween-80) 101 % of control; under setting [6], 101 % of control; under setting [7], 97 % of control; under setting [8], 96 % of control.
For `Cn1nc(C#N)c(=O)[nH]c1=O`, the T/C by setting is: under setting [6], 99 % of control; under setting [7], 97 % of control; under setting [8], 99 % of control and 100 % of control.
Turning to `CC1(C)C(=S)C(C)(C)C1=S`, the T/C reads like this: under setting [1], 104 % of control; under setting [2], 104 % of control; (dose: 200.0 mg/kg/injection, schedule: Q01DX005 (ip), vehicle: Klucel (hydroxypropylcellulose) (HPC)) 108 % of control.
As for `O=C1Nc2ccccc2S/C1=C\c1ccccc1C(F)(F)F`, the T/C is 108 % of control under setting [4] and 106 % of control under setting [5].
For `C/C(=N\NC(=S)Nc1ccc([N+](=O)[O-])cc1S(=O)(=O)O)c1ccccn1`, the T/C under setting [8] was 103 % of control; the T/C (dose: 100.0 mg/kg/injection, schedule: Q01DX005 (ip), vehicle: saline with Tween-80) is 106 % of control; the T/C (dose: 200.0 mg/kg/injection, schedule: Q01DX005 (ip), vehicle: saline with Tween-80) is 103 % of control.
In the case of `CS(=O)(=O)CS(=O)(=O)OCCCl`, the T/C runs as follows: (dose: 6.25 mg/kg/injection, schedule: Q01DX005 (ip), vehicle: dextrose) 109 % of control; (dose: 6.25 mg/kg/injection, schedule: Q01DX005 (ip), vehicle: distilled water + Tween-80) 114 % of control; (dose: 6.25 mg/kg/injection, schedule: Q01DX005 (iv), vehicle: dextrose) 109 % of control; (dose: 10.0 mg/kg/injection, schedule: Q01DX005 (ip), vehicle: saline) 121 % of control; (dose: 12.5 mg/kg/injection, schedule: Q01DX005 (iv), vehicle: dextrose) 118 % of control; (dose: 22.0 mg/kg/injection, schedule: Q01DX005 (ip), vehicle: saline) 166 % of control. Also, the T/C is 154 % of control (dose: 25.0 mg/kg/injection, schedule: Q01DX005 (ip), vehicle: dextrose); 230 % of control (dose: 33.0 mg/kg/injection, schedule: Q01DX005 (ip), vehicle: other); 198 % of control (dose: 33.0 mg/kg/injection, schedule: Q01DX005 (ip), vehicle: saline); 201 % of control (dose: 33.0 mg/kg/injection, schedule: Q01DX005 (ip), vehicle: water); 209 % of control (dose: 33.5 mg/kg/injection, schedule: Q01DX005 (ip), vehicle: saline); 241 % of control and 330 % of control (dose: 50.0 mg/kg/injection, schedule: Q01DX005 (ip), vehicle: dextrose). Also, the T/C is 250 % of control (dose: 50.0 mg/kg/injection, schedule: Q01DX005 (ip), vehicle: distilled water + Tween-80); 588 % of control (dose: 50.0 mg/kg/injection, schedule: Q01DX005 (ip), vehicle: other); 245 % of control and 267 % of control under setting [9]; 254 % of control and 285 % of control (dose: 50.0 mg/kg/injection, schedule: Q01DX005 (ip), vehicle: water); 196 % of control (dose: 50.0 mg/kg/injection, schedule: Q01DX005 (iv), vehicle: dextrose); 582 % of control (dose: 75.0 mg/kg/injection, schedule: Q01DX005 (ip), vehicle: dextrose). Further, the T/C (dose: 75.0 mg/kg/injection, schedule: Q01DX005 (ip), vehicle: other) was 588 % of control; the T/C (dose: 75.0 mg/kg/injection, schedule: Q01DX005 (ip), vehicle: saline) is 156 % of control; the T/C (dose: 75.0 mg/kg/injection, schedule: Q01DX005 (ip), vehicle: water) is 294 % of control; the T/C (dose: 100.0 mg/kg/injection, schedule: Q01DX005 (ip), vehicle: dextrose) was 535 % of control; the T/C (dose: 100.0 mg/kg/injection, schedule: Q01DX005 (ip), vehicle: distilled water + Tween-80) is 535 % of control; the T/C (dose: 100.0 mg/kg/injection, schedule: Q01DX005 (ip), vehicle: other) was 588 % of control. Moreover, the T/C was 151 % of control and 200 % of control under setting [10]; 294 % of control (dose: 100.0 mg/kg/injection, schedule: Q01DX005 (ip), vehicle: water).
Take `Cc1ccc(SSCCN)cc1`: the T/C (dose: 12.5 mg/kg/injection, schedule: Q01DX005 (ip), vehicle: saline) was 104 % of control; the T/C (dose: 25.0 mg/kg/injection, schedule: Q01DX005 (ip), vehicle: saline) was 104 % of control; the T/C under setting [9] is 108 % of control and 110 % of control.
On to `O=C(Nc1ccc(N=Nc2ccc(S(=O)(=O)O)cc2)cc1)c1ccc(N=Nc2cc(S(=O)(=O)O)c3ccccc3c2O)cc1`, for which the T/C was 110 % of control under setting [9] and 104 % of control under setting [10].
As for `CCCCn1c(=O)cc(C(=O)O)[nH]c1=O`, the T/C is, setting by setting: under setting [11], 104 % of control; under setting [12], 100 % of control; under setting [13], 94 % of control.
Consider `Cc1ccc(S(=O)CC(O)c2ccccc2)cc1` (centres undefined), for which the T/C is, setting by setting: under setting [11], 110 % of control; under setting [12], 101 % of control; under setting [13], 100 % of control.
In the case of `OC1(c2ccc(CCc3ccc(C4(O)C(c5ccccc5)=C(c5ccccc5)C(c5ccccc5)=C4c4ccccc4)cc3)cc2)C(c2ccccc2)=C(c2ccccc2)C(c2ccccc2)=C1c1ccccc1`, the T/C is, setting by setting: (dose: 6.25 mg/kg/injection, schedule: Q01DX009 (ip), vehicle: saline with Tween-80) 100 % of control; (dose: 12.5 mg/kg/injection, schedule: Q01DX009 (ip), vehicle: saline with Tween-80) 97 % of control; (dose: 25.0 mg/kg/injection, schedule: Q01DX009 (ip), vehicle: saline with Tween-80) 93 % of control; (dose: 200.0 mg/kg/injection, schedule: Q01DX001 (ip), vehicle: Klucel (hydroxypropylcellulose) (HPC)) 89 % of control.
Turning to `Clc1ccccc1Nc1c2ccccc2nc2ccccc12`, the T/C runs as follows: (dose: 100.0 mg/kg/injection, schedule: Q04DX003 (ip), vehicle: saline) 100 % of control; (dose: 132.0 mg/kg/injection, schedule: Q04DX003 (ip), vehicle: suspension in saline) 108 % of control; (dose: 200.0 mg/kg/injection, schedule: Q04DX003 (ip), vehicle: suspension in saline) 110 % of control; (dose: 300.0 mg/kg/injection, schedule: Q04DX003 (ip), vehicle: suspension in saline) 115 % of control; (dose: 400.0 mg/kg/injection, schedule: Q04DX003 (ip), vehicle: saline) 104 % of control.

Source of the values: PubChem BioAssay AID330 (DTP/NCI, 2004).
